Where two headings read alike, the source gives them in different places.
Legend:
[1] = target: T1, IRAK4-HiBiT fusion protein (Homo sapiens, UniProt Q9NWZ3); assay: Detection of HiBiT-IRAK4 proteolysis levels in K562 IRAK4-HiBiT cells (Nano-Glo HiBiT Lytic assay); format: cell-based
T1 construct: K562 from ATCC
T1 sequence (Q9NWZ3 1-460): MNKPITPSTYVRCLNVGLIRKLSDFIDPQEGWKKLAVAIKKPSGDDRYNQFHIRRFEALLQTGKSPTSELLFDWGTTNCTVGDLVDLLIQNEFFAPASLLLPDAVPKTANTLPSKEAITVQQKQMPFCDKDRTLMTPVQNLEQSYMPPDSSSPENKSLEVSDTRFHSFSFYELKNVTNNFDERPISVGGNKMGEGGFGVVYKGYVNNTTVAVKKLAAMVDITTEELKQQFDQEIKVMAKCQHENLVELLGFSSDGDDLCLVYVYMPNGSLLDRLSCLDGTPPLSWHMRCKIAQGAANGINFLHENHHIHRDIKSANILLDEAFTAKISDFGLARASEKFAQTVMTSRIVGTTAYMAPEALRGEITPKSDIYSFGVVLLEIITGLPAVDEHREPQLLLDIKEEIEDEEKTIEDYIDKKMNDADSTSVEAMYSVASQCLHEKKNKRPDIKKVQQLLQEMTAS
Procedure: Test Example 1 Detection of HiBiT-IRAK4 proteolysis levels in K562 IRAK4-HiBiT cells co-incubated with compounds of the present application • Reagents, devices, and consumables in experiments: • Nano-Glo Lytic Detection Assay, purchased from Promega; • EnVision, purchased from PerkinElmer; • Name of cell line: K562 IRAK4-HiBiT stable transformation cell strain (capable of stably expressing IRAK4-HiBiT fusion protein), constructed by Shanghai Bioduro Biologics Co., Ltd., where a K562 cell strain was purchased from ATCC. The culture medium is IMDM+10% FBS+1% P/S (volume percentage, where FBS is fetal bovine serum and P/S is Penicillin-Streptomycin, a 1:1 mixture of penicillin and streptomycin antibiotic solution (10,000 units/mL)).
Cell culture: K562 IRAK4-HiBiT cells were incubated at 37°C, and passaged every 2-3 d, with a seeding density of 200,000 cells/mL.
IRAK4-HiBiT proteolysis experiment: • Step 1: Cell seeding and treatment of compound • 1. A 10 mM compound mother liquor was prepared using DMSO, and a compound solution with a working concentration of 1,000 times (the highest working concentration is 10 µM, diluted 3.162 times, with a total of 10 concentration gradients) was prepared using Bravo automatic liquid processing platform. • 2. 40 nL of a compound working solution was transferred to a 384 well plate, and an equal volume of DMSO was added to positive control wells. • 3. 20 µL of a culture solution was added per well and shaken for 10 min. • 4.20 µL of a K562 IRAK4-HiBiT cell suspension was added per well (6,000 cells/well), and an equal volume of culture medium was added to negative control wells. • 5. The well plate was rotated at 1,000 rpm for 1 min. • 6. The cells were incubated in a 5% CO2 incubator at 37°C for 2 h or 6 h. • Step 2: HiBiT Lytic experiment • 1. The well plate was placed at room temperature to equilibrate for 30 min. • 2. 20 µL of Nano-Glo HiBiT Lytic reagent (trade name: Nano-Glo® HiBiT Lytic Detection Reagent) and the well plate was kept in the dark. • 3. The well plate was placed on an orbital shaker at 300 rpm for 5 min. • 4. The cells were incubated at room temperature for 10 min. • 5. The luminous value was read by Envision. • 6. Data was calculated and processed. Degradation degree%=(negative control - experimental well)/(negative control - positive control) * 100%. Using XL-fit software, a degradation curve was obtained by fitting using a 4 Parameter Logistic Model, and the values of Relative DC50 (nM) and Absolute DC50 (nM) were obtained.

[2] = Pharmacokinetic behavior in mice (plasma concentration by LC-MS/MS); format: in vivo; conditions: mouse, plasma, male ICR mice; for Cmax: read-out: Cmax; for Vd: read-out: Vss
Procedure: (§1) Three healthy ICR mice (SPF grade, from Beijing Vital River Laboratory Animal Technology Co., Ltd.), male, weighing 18-25 g, were intravenously injected with a compound (1 mg/kg) at a volume of 5 mL/kg. The compound was prepared using 5% DMSO+10% Solutol+85% Saline (w/v), and the animals were not fasted before the experiment.
as §1, with “were intragastrically administered” for “were intravenously injected with”, “compound (5” for “compound (1”, “of 10” for “of 5”
Blood samples (about 0.05 mL each) were collected from the cheeks at 5 min, 15 min, 30 min, 1 h, 2 h, 4 h, 6 h, 8 h, and 24 h after intravenous administration, and at 5 min, 15 min, 30 min, 1 h, 2 h, 4 h, 6 h, 8 h, and 24 h after intragastrical administration, and anticoagulated with heparin sodium. Following collection, the blood samples were placed on ice and the plasma was centrifuged within 1 h (centrifugation conditions: 6,000 g, 3 min, 2 °C to 8°C). The concentration of the compounds in the plasma was determined by liquid chromatography tandem mass spectrometry. The plasma samples were stored in a -80°C freezer before analysis. With plasma concentration data at different time points, pharmacokinetic parameters were calculated by Phoenix WinNonlin8.2.0, and the results are shown in Table 4: Table 4

[3] = tested on: LPS induced IL-6 release in human PBMC cells; assay: Inhibition of LPS induced IL-6 release in human PBMC cells (IL-6 HTRF assay); format: cell-based; conditions: 2 h compound pre-incubation, LPS 5 ng/mL for 4 h, IL-6 in supernatant
Procedure: I. Recovery and seeding of PBMC, and treatment of compounds (human PBMC cells were purchased from Oricell, item number: Fpb003F)
• 1. Preparation of compounds Sample dilutions of a series of concentrations were obtained by dilution in DMSO using Bravo, and then 80 nL was transferred into a cell plate using ECHO. The final concentration of DMSO in the cell culture medium is 0.1%. • 2. Frozen cells were quickly thawed in a 37°C water bath and stirred continuously. • 3. 25 mL of fresh preheated culture medium was added into a 50 mL centrifuge tube, and then the cells were added dropwise. Then the cells were centrifuged at 2,000 rpm for 10 min. • 4. […] The total number of cells required was calculated based on cell concentration to perform the assay. 7×10e4 cells were added per well (70 µL). • 6. The cell plate was placed and incubated in a 5% CO2 incubator at 37°C for 2 h.
• 1. LPS: A stock solution (1 mg/mL) was diluted in dH2O, aliquoted, and stored at -80°C. • 2. 8-fold LPS was added per well (10 µl/well) (with a final concentration of 5 ng/mL). The cells were incubated in a 5% CO2 incubator at 37°C for 4 h. • 3. 70 µl of supernatant was collected per well using Bravo, and then IL-6 HTRF assay was performed. The supernatant may be stored at -80°C.
1. Preparation of standards and sample dilutions. 2. 16 µL of each sample was taken using Bravo and added to wells. Then 16 µL of each standard was taken and added to corresponding wells. 3.4 µL of a premixed IL6 antibody working solution was added to each of all wells. 4. The cell plate was sealed and incubated at room temperature for 2 h. 5.

[4] = po, Intragastric administration (5 mg/kg)
[5] = Intravenous injection (1 mg/kg)

SMILES: CC(C)(O)c1cc2nn([C@H]3CC[C@H](CCN4CCC5(CC4)OC(=O)c4cc(C6CCC(=O)NC6=O)ccc45)CC3)cc2cc1NC(=O)c1cccc(C(F)(F)F)n1 (stereo partly drawn) [Compound 93]
- Dmax ([1]; 2 h incubation): 94%
- DC50 ([1]; 2 h incubation, read-out: Absolute DC50): 0.74 nM
- DC50 ([1]; 2 h incubation, read-out: Relative DC50): 0.93 nM
- AUC(0-t) [2, 4]: 9150 ng·h/mL
- bioavailability [2, 4]: 29.5%
- half-life [2, 4]: 4.19 h
- Cmax [2, 4]: 844 ng/mL
- AUC(0-t) [2, 5]: 6210 ng·h/mL
- clearance [2, 5]: 2.98 mL/min/kg
- Cmax [2, 5]: 783 ng/mL
- Vd [2, 5]: 0.958 L/kg
- IC50 [3]: 0.18 nM

SMILES: COc1cc2nn([C@H]3CC[C@H](CCN4CCC5(CC4)OCc4cc(C6CCC(=O)NC6=O)ccc45)CC3)cc2cc1C(=O)Nc1cccc(C(F)(F)F)n1 (stereo partly drawn) [Compound 96]
- Dmax ([1]; 6 h incubation): 97%
- DC50 ([1]; 6 h incubation, read-out: Absolute DC50): 0.48 nM
- DC50 ([1]; 6 h incubation, read-out: Relative DC50): 0.44 nM
- AUC(0-t) [2, 4]: 3640 ng·h/mL
- bioavailability [2, 4]: 35.4%
- half-life [2, 4]: 14.7 h
- Cmax [2, 4]: 239 ng/mL
- AUC(0-t) [2, 5]: 2060 ng·h/mL
- clearance [2, 5]: 4.59 mL/min/kg
- Cmax [2, 5]: 243 ng/mL
- Vd [2, 5]: 7.97 L/kg
- IC50 [3]: 0.23 nM

— patent publication EP4696691A1, “TRICYCLIC COMPOUND, AND PREPARATION METHOD THEREFOR AND USE THEREOF” (Shanghai Huilun Pharmaceutical Co., Ltd., priority 2023, dated 2024)
